Where two headings read alike, the source gives them in different places.
Columns and labels:
[1] = system: Litomosoides sigmodontis; assay: Litomosoides sigmodontis natural infection in vivo model; conditions: L. sigmodontis, necropsy day 63, QD
Method: We characterized the in vitro ADME properties of 8a in preparation for evaluation of this compound in our primary in vivo model in gerbils. […] We were pleased to find that 8a was able to kill 100% of both male and female worms in the gerbil peritoneum when dosed subcutaneously at 100 mg/kg/day for 14 days as a suspension in a nonsolubilizing HEC/Tween vehicle. […] The subsequent assessment of the pharmacokinetics of 8a from these two dosing paradigms provided an interesting observation that we believe to be important in understanding the PK–PD requirements for achieving efficacy in this animal model. […] We had made the same observation in a positive control group using flubendazole at a subcutaneous dose of 10 mg/kg/day for 5 days in the nonsolubilizing HEC/Tween vehicle, namely, that plasma levels of flubendazole were maintained above the in vitro IC50 (4 nM) for over 42 days, consistent with data reported in the literature.[43] […] We next examined 8a in two additional in vivo models, the first where L3 B. pahangi larvae were injected into the peritoneum of gerbils and allowed to develop into adult worms[45] and a second where gerbils were naturally infected by the filarial nematode Litomosoides sigmodontis.[46],[47] In both of these models, 8a was administered subcutaneously at 100 mg/kg for 14 days or orally at 100 mg/kg for 28 days as a suspension. […] Additionally, when plasma obtained from treated animals at necropsy was analyzed for 8a, we observed an outcome similar to that observed in the adult implantation model, e.g., that measurable levels were present at this time point in the subcutaneous-dosed groups but not in the orally dosed groups, weeks after administration of the drug. In a final L. sigmodontis experiment with 8a, we dosed the compound subcutaneously at 300 mg/kg for 7 days as a suspension. […]
administered their doses at the same time each day and are allowed to feed and drink ad libitum. Gerbils were euthanized following approved institutional protocols. Euthanized animals were weighed and examined for external and visceral pathologies.
The adult Brugia worms were recovered by opening the body cavity and washing the peritoneal cavity with 100 mL of phosphate buffered saline. Male and female worms were counted using a
Litomosoides sigmodontis natural infection in vivo model
All animal experiments with L. sigmodontis were conducted at the Institute for Medical Microbiology, Immunology and Parasitology
(IMMIP), University Hospital of Bonn, in accordance to the European Union animal welfare guidelines. All protocols were approved by the local authorities (Landesamt für Natur, Umwelt […]
from Janvier (Saint-Berthevin, France) and were housed at the animal facility of the IMMIP in individually ventilated cages on a 12h light/dark cycle with food and water ad libidum. Mice were infected at 6-8 weeks of age via exposure to the natural mite vector Ornithonyssus bacoti containing infectious L. sigmodontis
L3 larvae. To compare the infection, the same batch of mite-containing bedding was used to infect all animals of one experiment. 35 days post infection, a time point adult worms have developed within the thoracic cavity, mice were treated per oral gavage with the test compounds at concentrations indicated in the result section. As a vehicle, 1% CMC + 0.1% Tween80 was used. Negative controls were treated with vehicle and as positive control, mice were treated orally with doxycycline
(Sigma) in 10% DMSO/1xPBS. Necropsies were performed at 64-77

[2] = system: Brugia malayi; assay: Adult Brugia malayi transplantation in vivo model in gerbils; conditions: for adult worm reduction / animals with no worms: B. malayi, necropsy day 42, QD
Method: (§1) We characterized the in vitro ADME properties of 8a in preparation for evaluation of this compound in our primary in vivo model in gerbils. […] We were pleased to find that 8a was able to kill 100% of both male and female worms in the gerbil peritoneum when dosed subcutaneously at 100 mg/kg/day for 14 days as a suspension in a nonsolubilizing HEC/Tween vehicle. […] The subsequent assessment of the pharmacokinetics of 8a from these two dosing paradigms provided an interesting observation that we believe to be important in understanding the PK–PD requirements for achieving efficacy in this animal model. […] We had made the same observation in a positive control group using flubendazole at a subcutaneous dose of 10 mg/kg/day for 5 days in the nonsolubilizing HEC/Tween vehicle, namely, that plasma levels of flubendazole were maintained above the in vitro IC50 (4 nM) for over 42 days, consistent with data reported in the literature.[43] […] We next examined 8a in two additional in vivo models, the first where L3 B. pahangi larvae were injected into the peritoneum of gerbils and allowed to develop into adult worms[45] and a second where gerbils were naturally infected by the filarial nematode Litomosoides sigmodontis.[46],[47] In both of these models, 8a was administered subcutaneously at 100 mg/kg for 14 days or orally at 100 mg/kg for 28 days as a suspension. […] Additionally, when plasma obtained from treated animals at necropsy was analyzed for 8a, we observed an outcome similar to that observed in the adult implantation model, e.g., that measurable levels were present at this time point in the subcutaneous-dosed groups but not in the orally dosed groups, weeks after administration of the drug. In a final L. sigmodontis experiment with 8a, we dosed the compound subcutaneously at 300 mg/kg for 7 days as a suspension.
Plates were incubated at 37 °C in a 5% CO2 incubator for 6 days, then molting was assessed visually using an inverted microscope. Molting was determined in each well by counting the presence of fourth stage larvae (L4s) and empty casts of L3s.
The percent inhibition of molting was calculated based on the number of treated larvae that were able to molt in comparison to the number of control larvae that had successfully molted. IC50 values were calculated using GraphPad Prism v6.0
(http://www.graphpad.com). See Bullman et al., PLoS Negl. Trop.
Adult Brugia malayi transplantation in vivo model procedure.
Gerbils (Meriones unguiculatus) were infected by transplantation of 10 male and 10 female adult Brugia malayi into the peritoneal cavity. Gerbils were acclimated for 7 days prior to treatment. Animals were dosed based on their body weight prior to each dosing. Animals were administered their doses at the same time each day and receive standard rodent laboratory diet and water ad libitum. Gerbils were humanely euthanized at the conclusion of each study. Peritoneal counts of male and female adult B. malayi and visual condition of the peritoneum were recorded.
Brugia pahangi L3 injection in vivo model procedure 8.
Male gerbils (Meriones unguiculatus) approximately 6 weeks of age (50-60 g) were purchased from Charles Rivers (USA, Kingston K62 Gerbils) and infected by intraperitoneal injection with 200 Brugia pahangi third-stage larvae (L3) per animal
(Filariatech, Inc., Athens, GA). Gerbils were housed with no more than 5 animals per cage and maintained 9 months prior to treatment. All gerbils were dosed in accordance with their body weight determined prior to each dosing. Animals were […]

[3] = Plasma drug concentrations in treated infected gerbils; assay type: in vivo; conditions: for concentration at 42 day: day 42; for concentration at 28 day: day 28
Method: as §1

[4] = 100 mg/kg × 28 days, PO (suspension)
[5] = 300 mg/kg × 7 days, SC (suspension)
[6] = 100 mg/kg × 14 days, SC (suspension)
[7] = 150 mg/kg × 14 days, SC (solution)

In the case of COC(=O)Nc1nc2cc(C(=O)NCc3ccc4c(c3)B(O)OC4(C)C)ccc2[nH]1 [8a], the adult worm reduction [1, 4] is reported as “–135.3%”, the “animals with no worms” value [1, 4] is reported as 0% and the adult worm reduction [1, 5] is reported as 100%/100%. The “animals with no worms” value [1, 5] was 100%/100%, the adult worm reduction [2, 6] was 100% and the “animals with no worms” value [2, 6] was 87.5%. For the same compound, the adult worm reduction [2, 4] was 12.5%, the “animals with no worms” value [2, 4] was 0% and the adult worm reduction [2, 7] was 83.3%. For the same compound, the “animals with no worms” value [2, 7] was 50%, the in vivo efficacy ([2]; SC 150 mg/kg/day as a solution in DMSO/water vehicle) was “substantially reduced” and the “kill of both male and female worms in the gerbil peritoneum” value ([2]; implanted adult B. malayi or B. pahangi, SC 100 mg/kg/day for 14 days, suspension in HEC/Tween vehicle) was 100%. For the same compound, the “in vivo efficacy by the oral route” value ([2]; oral, 100 mg/kg/day for 28 days) was “not efficacious”, the “drug concentration at necropsy” value ([3]; B. malayi model, necropsy day 42, 100 mg/kg × 28 days, QD, PO (suspension)) was “<LOQ” and the “drug concentration at necropsy” value ([3]; B. pahangi model, necropsy day 63, 100 mg/kg × 28 days, QD, PO (suspension)) was “<LOQ”. For the same compound, the concentration at 24 h after last dose ([3]; gerbil, plasma, po, 100 mg/kg, B. malayi model, 100 mg/kg × 28 days, QD, PO (suspension), read-out: drug concentration 24 h after last dose) was 128 nM, the concentration at 24 h after last dose ([3]; gerbil, plasma, po, 100 mg/kg, B. pahangi model, 100 mg/kg × 28 days, QD, PO (suspension), read-out: drug concentration 24 h after last dose) was 130 nM and the concentration at 42 day ([3]; gerbil, plasma, po, 100 mg/kg, L. sigmodontis model, 100 mg/kg × 28 days, QD, PO (suspension), read-out: drug concentration interim) was 6 nM. It also gave a concentration at 63 day (necropsy) ([3]; gerbil, plasma, po, 100 mg/kg, L. sigmodontis model, necropsy day 63, 100 mg/kg × 28 days, QD, PO (suspension)) of 3 nM, a concentration at 24 h after last dose ([3]; gerbil, plasma, po, 100 mg/kg, L. sigmodontis model, 100 mg/kg × 28 days, QD, PO (suspension), read-out: drug concentration 24 h after last dose) of 210 nM and a concentration at 28 day ([3]; gerbil, plasma, sc, 100 mg/kg, B. malayi model, 100 mg/kg × 14 days, QD, SC (suspension), read-out: drug concentration interim) of 5360 nM. It also gave a concentration at 42 day (necropsy) ([3]; gerbil, plasma, sc, 100 mg/kg, B. malayi model, necropsy day 42, 100 mg/kg × 14 days, QD, SC (suspension), read-out: drug concentration at necropsy) of 3380 nM, a concentration at 24 h after last dose ([3]; gerbil, plasma, sc, 100 mg/kg, B. malayi model, 100 mg/kg × 14 days, QD, SC (suspension), read-out: drug concentration 24 h after last dose) of 4100 nM and a concentration at 63 day (necropsy) ([3]; gerbil, plasma, sc, 100 mg/kg, B. pahangi model, necropsy day 63, 100 mg/kg × 14 days, QD, SC (suspension)) of 1150 nM. The concentration at 24 h after last dose ([3]; gerbil, plasma, sc, 100 mg/kg, B. pahangi model, 100 mg/kg × 14 days, QD, SC (suspension), read-out: drug concentration 24 h after last dose) was 5870 nM, the concentration at 63 day (necropsy) ([3]; gerbil, plasma, sc, 100 mg/kg, L. sigmodontis model, necropsy day 63, 100 mg/kg × 14 days, QD, SC (suspension)) was 69 nM and the concentration at 24 h after last dose ([3]; gerbil, plasma, sc, 100 mg/kg, L. sigmodontis model, 100 mg/kg × 14 days, QD, SC (suspension), read-out: drug concentration 24 h after last dose) was 9300 nM. It also gave a concentration at 28 day ([3]; gerbil, plasma, sc, 150 mg/kg, B. malayi model, 150 mg/kg × 14 days, QD, SC (solution), read-out: drug concentration interim) of 70 nM, a concentration at 42 day (necropsy) ([3]; gerbil, plasma, sc, 150 mg/kg, B. malayi model, necropsy day 42, 150 mg/kg × 14 days, QD, SC (solution), read-out: drug concentration at necropsy) of 10 nM and a concentration at 24 h after last dose ([3]; gerbil, plasma, sc, 150 mg/kg, B. malayi model, 150 mg/kg × 14 days, QD, SC (solution), read-out: drug concentration 24 h after last dose) of 2470 nM. The concentration at 21 day ([3]; gerbil, plasma, sc, 300 mg/kg, L. sigmodontis model, day 21, 300 mg/kg × 7 days, QD, SC (suspension), read-out: drug concentration interim) was 10600 nM, the concentration at 42 day ([3]; gerbil, plasma, sc, 300 mg/kg, L. sigmodontis model, 300 mg/kg × 7 days, QD, SC (suspension), read-out: drug concentration interim) was 4640 nM and the concentration at 63 day (necropsy) ([3]; gerbil, plasma, sc, 300 mg/kg, L. sigmodontis model, necropsy day 63, 300 mg/kg × 7 days, QD, SC (suspension)) was 480 nM. It also gave a concentration at 24 h after last dose ([3]; gerbil, plasma, sc, 300 mg/kg, L. sigmodontis model, 300 mg/kg × 7 days, QD, SC (suspension), read-out: drug concentration 24 h after last dose) of 7850 nM.

For COC(=O)Nc1nc2cc(C(=O)c3ccc(F)cc3)ccc2[nH]1 [compound 1, Flubendazole, reference compound], the adult worm reduction ([1]; 10 mg/kg × 5 days, SC) was 100%/100%, the “animals with no worms” value ([1]; 10 mg/kg × 5 days, SC) was 100%/100% and the adult worm reduction ([2]; 10 mg/kg × 5 days, SC) was 100%/100%. The “animals with no worms” value ([2]; 10 mg/kg × 5 days, SC) was 100%/100%, the concentration at 24 h after last dose ([3]; gerbil, in vivo, sc, 10 mg/kg, drug concentration 24 h after last dose) was 178 nM and the concentration at 42 day (necropsy) ([3]; gerbil, in vivo, sc, 10 mg/kg, drug concentration at necropsy) was 43 nM. The “time plasma levels maintained above in vitro IC50 (4 nM)” value ([3]; gerbil, in vivo, sc, 10 mg/kg/day) was “over 42 days”.

Source: article PMC7026885, “Macrofilaricidal Benzimidazole–Benzoxaborole Hybrids as an Approach to the Treatment of River Blindness: Part 1. Amide Linked Analogs” (ACS Infectious Diseases, 2019)
